Here are results for 34 molecules from patent US10307413B2, “Tetrahydro- and dihydro-isoquinoline PRMT5 inhibitors and uses thereof” (Epizyme, Inc., priority 2013, dated 2019).

pEC50, pIC50: −log10 of the molar value. Read-outs that look alike come from different tables or passages of the source.

In one test the test system is Z-138 cell line. The test can be described thus: Z-138 Proliferation Assay (Cell Titer Glo, 5 days). Type of test: cell-based. The settings on record: Homo sapiens, read-out: Proliferation EC50. An outline of the steps:
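Z-138 cells exposed 5 days at 37 °C, 5% CO2 to nine-point 3-fold dilutions (final top 20 μM, 0.2% DMSO), in triplicate. Viability read as ATP by CellTiter-Glo luminescence; IC50 from 4-parameter fit of normalized dose-response curves.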
(In general: Cellular ATP, detected with luciferase, serves as a proxy for viable cell number.)

The target of the next test is PRMT5/MEP50 (Homo sapiens (Human), UniProt O14744). The test can be described thus: PRMT5 Biochemical Assay (PRMT5/MEP50 enzyme assay on peptide substrate, 3H-SAM Flashplate). The following applies: PRMT5 biochemical assay. Summed up: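 Radiometric methylation of a biotin-tagged H4(1-15) peptide by human PRMT5/MEP50 from baculovirus/Sf9, with ³H-SAM incorporation read on streptavidin Flashplates. Buffer: Bicine pH 7.6, TCEP, BSG, Tween20; compound preincubated 30 min at 25 °C; stopped with 600 µM final unlabeled SAM. DMSO and SAH controls; IC50 from fitted % inhibition.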
Chain of PRMT5/MEP50 (O14744 other isoform, or with tags, fused parts or gaps): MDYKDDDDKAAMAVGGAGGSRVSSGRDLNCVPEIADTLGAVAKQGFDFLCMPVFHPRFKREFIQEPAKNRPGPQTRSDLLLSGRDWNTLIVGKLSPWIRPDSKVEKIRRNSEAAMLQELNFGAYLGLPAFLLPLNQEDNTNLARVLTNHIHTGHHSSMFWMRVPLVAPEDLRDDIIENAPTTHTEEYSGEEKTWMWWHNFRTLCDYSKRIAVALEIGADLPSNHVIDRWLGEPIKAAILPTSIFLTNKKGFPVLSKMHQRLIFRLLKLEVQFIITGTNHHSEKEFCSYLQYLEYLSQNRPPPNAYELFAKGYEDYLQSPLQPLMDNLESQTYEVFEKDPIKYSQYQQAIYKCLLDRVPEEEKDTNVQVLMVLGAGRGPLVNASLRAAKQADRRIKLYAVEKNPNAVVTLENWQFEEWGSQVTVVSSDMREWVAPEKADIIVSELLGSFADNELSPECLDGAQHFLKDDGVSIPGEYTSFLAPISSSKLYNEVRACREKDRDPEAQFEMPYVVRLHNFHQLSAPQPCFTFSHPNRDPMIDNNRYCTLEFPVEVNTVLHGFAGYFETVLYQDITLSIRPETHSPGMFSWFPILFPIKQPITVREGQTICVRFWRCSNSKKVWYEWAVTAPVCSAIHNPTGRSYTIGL
Chain of PRMT5/MEP50 (Q9BQA1 other isoform, or with tags, fused parts or gaps partner): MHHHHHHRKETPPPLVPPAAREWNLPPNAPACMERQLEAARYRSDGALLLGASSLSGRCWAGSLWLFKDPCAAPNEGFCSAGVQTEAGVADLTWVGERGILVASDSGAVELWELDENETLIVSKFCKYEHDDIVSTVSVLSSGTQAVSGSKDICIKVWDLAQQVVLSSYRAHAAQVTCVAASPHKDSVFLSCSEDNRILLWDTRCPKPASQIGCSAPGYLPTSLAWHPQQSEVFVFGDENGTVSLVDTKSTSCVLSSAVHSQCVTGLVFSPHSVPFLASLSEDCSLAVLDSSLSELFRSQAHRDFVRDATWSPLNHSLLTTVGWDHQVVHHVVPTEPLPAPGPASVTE

Test [1] has as its system symmetric di-methyl arginine in Z-138 cells. Put plainly: Z-138 Methylation Assay (In Cell Western for symmetric di-methyl arginine and DNA content). Type of test: cell-based. The following applies: Homo sapiens, In Cell Western methylation, read-out: ICW EC50. Summed up: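 Z-138 cells (50,000 cells/mL) treated with compound 96 h at 37 °C, then fixed and stained for symmetric di-methyl arginine (800 nm) with DRAQ5 DNA counterstain (700 nm) on Licor Odyssey.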

[2] abbreviates: 120 h, Z-138 cells, 5 days, Cell Titer Glo.

By pIC50 is commonly meant the IC50 on a negative log10 scale, so that one unit is a factor of ten. In the case of `CC(=O)N1CC(Nc2cc(C(=O)NCC(C)CN3CCc4ccccc4C3)ncn2)C1` (stereo not drawn) [Compound 659], the results for the pEC50 (with Z-138 cell line (setting [2]); in test [1]) were 6.00 to 7.00 and above 7.00, respectively. The negative-log IC50 (pIC50) at PRMT5/MEP50 is above 7.00.
For the molecule `CC(=O)N1CCC(Nc2cc(C(=O)NCC(C)CN3CCc4ccccc4C3)ccn2)CC1` (stereo not drawn) [Compound 660], the pEC50 is 6.00 to 7.00 in the test on Z-138 cell line (setting [2]) and above 7.00 in test [1]. Moreover, the negative-log IC50 (pIC50) at PRMT5/MEP50 was above 7.00.
As for `CN[C@H]1CC[C@H](Nc2cc(C(=O)NC[C@H](O)CN3CCc4ccccc4C3)ncn2)CC1` [Compound 661], the results for the pEC50 (with Z-138 cell line (setting [2]); in test [1]) were 6.00 to 7.00 and above 7.00, respectively. The negative logarithm of the IC50 (pIC50) at PRMT5/MEP50 was above 7.00.
As for `CCN(C)[C@H]1CC[C@H](Nc2cc(C(=O)NC[C@H](O)CN3CCc4ccccc4C3)ncn2)CC1` [Compound 662], the pEC50 is 6.00 to 7.00 in the test with Z-138 cell line (setting [2]) and above 7.00 in test [1]. The negative-log IC50 (pIC50) at PRMT5/MEP50 was above 7.00.
On to `CC(=O)N1CC(Nc2cc(C(=O)NC[C@H](O)CN3CCc4cccc(C)c4C3)ncn2)C1` [Compound 663], for which the results for the pEC50 (with Z-138 cell line (setting [2]); in test [1]) were 6.00 to 7.00 and above 7.00, respectively. In addition, the pIC50 at PRMT5/MEP50 was above 7.00.
Take `CC(=O)N1CCC(Nc2cc(C(=O)NC[C@H](O)CN3CCc4cccc(C)c4C3)ncn2)CC1` [Compound 664]: the pEC50 in the test on Z-138 cell line (setting [2]) was 6.00 to 7.00; in test [1], above 7.00. The negative logarithm of the IC50 (pIC50) at PRMT5/MEP50 was above 7.00.
For `CC(=O)N1CCC(Nc2cc(C(=O)NC[C@H](O)CN3CCc4cccc(C)c4C3)ccn2)CC1` [Compound 665], the pEC50 (in the test on Z-138 cell line (setting [2]); in test [1]) was above 7.00 in each case. On PRMT5/MEP50, the pIC50 was above 7.00.
On to `Cc1ccc2c(c1)CN(C[C@@H](O)CNC(=O)c1cc(NC3COC3)ncn1)CC2` [Compound 666], for which the figures for the pEC50 (in the test with Z-138 cell line (setting [2]); in test [1]) were below 5.30 and 6.00 to 7.00, respectively. Moreover, the negative logarithm of the IC50 (pIC50) at PRMT5/MEP50 was 6.00 to 7.00.
On to `CC(=O)N1CC(Nc2cc(C(=O)NC[C@H](O)CN3CCc4ccc(C)cc4C3)ncn2)C1` [Compound 667], for which the pEC50 was 5.00 to 6.00 in the test with Z-138 cell line (setting [2]) and above 7.00 in test [1]. Further, the negative-log IC50 (pIC50) at PRMT5/MEP50 is 6.00 to 7.00.
Take `CC(=O)N1CCC(Nc2cc(C(=O)NC[C@H](O)CN3CCc4ccc(C)cc4C3)ncn2)CC1` [Compound 668]: the figures for the pEC50 (with Z-138 cell line (setting [2]); in test [1]) were 5.00 to 6.00 and above 7.00, respectively. Besides, the pIC50 on PRMT5/MEP50 is above 7.00.
Take `CC(=O)N1CCC(Nc2cc(C(=O)NC[C@H](O)CN3CCc4ccc(C)cc4C3)ccn2)CC1` [Compound 669]: the pEC50 was 6.00 to 7.00 with Z-138 cell line (setting [2]) and above 7.00 in test [1]. Moreover, the pIC50 at PRMT5/MEP50 is above 7.00.
Take `CC(=O)N1CCC(Nc2cc(C(=O)NC[C@H](O)CN3CCc4c(C)cccc4C3)ccn2)CC1` [Compound 670]: the results for the pEC50 (in the test with Z-138 cell line (setting [2]); in test [1]) were 6.00 to 7.00 and above 7.00, respectively. The negative logarithm of the IC50 (pIC50) at PRMT5/MEP50 was above 7.00.
With `CC(=O)N(C)[C@H]1CC[C@H](Nc2cc(C(=O)NC[C@H](O)CN3CCc4ccccc4C3)ncn2)CC1` [Compound 671], the pEC50 (with Z-138 cell line (setting [2]); in test [1]) was above 7.00 each time. Further, the pIC50 on PRMT5/MEP50 was above 7.00.
As for `COCCN(C)c1cc(NC2CCN(C(C)=O)CC2)cc(C(=O)NC[C@H](O)CN2CCc3ccccc3C2)n1` [Compound 672], the pEC50 (in the test with Z-138 cell line (setting [2]); in test [1]) was above 7.00 each time. The pIC50 on PRMT5/MEP50 was above 7.00.
For `Cc1cccc2c1CN(C[C@@H](O)CNC(=O)c1cc(NC3COC3)ncn1)CC2` [Compound 673], the pEC50 is 5.00 to 6.00 in the test with Z-138 cell line (setting [2]) and above 7.00 in test [1]. At PRMT5/MEP50, the negative logarithm of the IC50 (pIC50) was above 7.00.
On to `CC(=O)N1CC(Nc2cc(C(=O)NC[C@H](O)CN3CCc4cc(C)ccc4C3)ncn2)C1` [Compound 674], for which the values for the pEC50 (in the test with Z-138 cell line (setting [2]); in test [1]) were 5.00 to 6.00 and above 7.00, respectively. Moreover, the pIC50 on PRMT5/MEP50 was above 7.00.
With `CC(=O)N1CCC(Nc2cc(C(=O)NC[C@H](O)CN3CCc4cc(C)ccc4C3)ncn2)CC1` [Compound 675], the pEC50 was 6.00 to 7.00 in the test on Z-138 cell line (setting [2]) and above 7.00 in test [1]. Further, at PRMT5/MEP50, the pIC50 is above 7.00.
In the case of `CC(=O)N1CC(Nc2cc(C(=O)NC[C@H](O)CN3CCc4c(C)cccc4C3)ncn2)C1` [Compound 676], the pEC50 in the test on Z-138 cell line (setting [2]) was 5.00 to 6.00; in test [1] it was above 7.00. The pIC50 at PRMT5/MEP50 is above 7.00.
As for `CC(=O)N1CCC(Nc2cc(C(=O)NC[C@H](O)CN3CCc4c(C)cccc4C3)ncn2)CC1` [Compound 677], the pEC50 in the test with Z-138 cell line (setting [2]) is 5.00 to 6.00; in test [1], above 7.00. Moreover, the negative-log IC50 (pIC50) on PRMT5/MEP50 is above 7.00.
As to `CC(=O)N1CCC(Nc2cc(C(=O)NC[C@H](O)CN3CCc4ccccc4C3)nc(N3CCOCC3)c2)CC1` [Compound 678], the pEC50 with Z-138 cell line (setting [2]) is 6.00 to 7.00; in test [1], above 7.00. In addition, the negative-log IC50 (pIC50) at PRMT5/MEP50 is above 7.00.
On to `CC(=O)N1CCC(Nc2cc(C(=O)NC[C@H](O)CN3CCc4ccccc4C3)nc(N3CCN(C(C)=O)CC3)c2)CC1` [Compound 679], for which the figures for the pEC50 (in the test with Z-138 cell line (setting [2]); in test [1]) were 6.00 to 7.00 and above 7.00, respectively. At PRMT5/MEP50, the pIC50 was above 7.00.
As to `Cc1ccc2c(c1)CCN(C[C@@H](O)CNC(=O)c1cc(NC3COC3)ncn1)C2` [Compound 681], the results for the pEC50 (with Z-138 cell line (setting [2]); in test [1]) were below 5.30 and 6.00 to 7.00, respectively. On PRMT5/MEP50, the pIC50 was 6.00 to 7.00.
As to `CC(=O)N1CCC(Nc2cc(C(=O)NC[C@H](O)CN3CCc4cc(C)ccc4C3)ccn2)CC1` [Compound 682], the results for the pEC50 (with Z-138 cell line (setting [2]); in test [1]) were 6.00 to 7.00 and above 7.00, respectively. Moreover, on PRMT5/MEP50, the pIC50 is above 7.00.
For `Cc1cccc2c1CCN(C[C@@H](O)CNC(=O)c1cc(NC3COC3)ncn1)C2` [Compound 683], the pEC50 in the test on Z-138 cell line (setting [2]) was below 5.30; in test [1], 6.00 to 7.00. In addition, the pIC50 at PRMT5/MEP50 was 6.00 to 7.00.
Consider `CC(=O)N1CCC(Nc2cc(C(=O)NC[C@H](O)CN3CCc4ccccc4C3)nc(N3CCN(C)CC3)c2)CC1` [Compound 684], for which the pEC50 was 6.00 to 7.00 with Z-138 cell line (setting [2]) and above 7.00 in test [1]. The negative logarithm of the IC50 (pIC50) at PRMT5/MEP50 is above 7.00.
For the molecule `CC(=O)N1CCC(Nc2cc(C(=O)NC[C@H](O)CN3CCc4ccccc4C3)nc(N(C)C)c2)CC1` [Compound 685], the pEC50 was 6.00 to 7.00 with Z-138 cell line (setting [2]) and above 7.00 in test [1]. The pIC50 at PRMT5/MEP50 is above 7.00.
As for `O=C(NC[C@H](O)CN1CCc2ccccc2C1)c1cnnc(NC2CCNC2)c1` (stereo partly drawn) [Compound 686], the pEC50 in the test with Z-138 cell line (setting [2]) was below 5.30; in test [1], below 6.00. In addition, the negative logarithm of the IC50 (pIC50) on PRMT5/MEP50 was above 7.00.
For `CN1CCC(Nc2cc(C(=O)NC[C@H](O)CN3CCc4ccccc4C3)cnn2)C1` (stereo partly drawn) [Compound 689], in that order: below 5.30, 6.00 to 7.00 and above 7.00.
For `COC(CNC(=O)c1cc(NC2CN(C(C)=O)C2)ncn1)CN1CCc2ccccc2C1` (stereo not drawn) [Compound 690], in that order: below 5.30, 6.00 to 7.00 and 6.00 to 7.00.
For `COC(CNC(=O)c1ccnc(NC2CCN(C(C)=O)CC2)c1)CN1CCc2ccccc2C1` (stereo not drawn) [Compound 691], in that order: 5.00 to 6.00, above 7.00 and above 7.00.
Consider `CC(=O)N1CCC(Nc2cc(C(=O)NCC(O)C(C)N3CCc4ccccc4C3)ccn2)CC1` (stereo not drawn) [Compound 692], for which the results for the pEC50 (in the test with Z-138 cell line (setting [2]); in test [1]) were below 5.30 and 6.00 to 7.00, respectively. In addition, the pIC50 at PRMT5/MEP50 is 6.00 to 7.00.
For the molecule `O=C(NC[C@H](O)CN1CCc2ccccc2C1)c1cnnc(NC2CCOCC2)c1` [Compound 693], the pEC50 was 6.00 to 7.00 with Z-138 cell line (setting [2]) and above 7.00 in test [1]. The pIC50 at PRMT5/MEP50 was above 7.00.
With `CC(=O)N1CCC(Nc2cc(C(=O)NC[C@H](O)CN3CCc4ccccc4C3C)ccn2)CC1` (stereo partly drawn) [Compound 694], the results for the pEC50 (in the test on Z-138 cell line (setting [2]); in test [1]) were 6.00 to 7.00 and above 7.00, respectively. Further, the pIC50 on PRMT5/MEP50 was above 7.00.
Regarding `CC(=O)N1CCC(Nc2cc(C(=O)NCC(F)CN3CCc4ccccc4C3)ccn2)CC1` (stereo not drawn) [Compound 698], the pEC50 in the test with Z-138 cell line (Z-138, 120 h) is 5.00 to 6.00; in test [1] it was above 7.00. The negative logarithm of the IC50 (pIC50) on PRMT5/MEP50 is above 7.00.
